The values that follow come from patent US9585821B2, “Methods for making compositions for improving skin conditions” (Allergan Industrie SAS, priority 2010, dated 2017).

Data set [1] in a line: Appearance of fluid compositions, visually examined. As to conditions: fluid compositions comprising a matrix polymer. It is filed as physicochemical. How it is done: Fluid compositions made for testing were prepared as described in Example 1, except that 1) 1 mL of each fluid composition was made and the amount of mannitol added to the test fluid compositions was 0% (w/v) for control, 0.5% (w/v), 5% (w/v), 9% (w/v), and 17% (w/v). The appearance of the fluid compositions was visually examined.

Data set [2] can be described thus: Chemical and physical stability of mannitol after sterilization. The format is physicochemical. Conditions: 25% Mannitol autoclaved five times at 121° C. for 15 minutes. How it is done: The chemical and physical stability of mannitol after sterilization was determined by autoclaving 25% Mannitol ([…] Pharmaceuticals, Itasca, Ill.) five times at 121° C. for 15 minutes.

For data set [3] the following is noted: known, cited from earlier work.

On to `OC[C@@H](O)[C@@H](O)[C@H](O)[C@H](O)CO` [mannitol], for which the “mannitol that fluid compositions can include before it begins to precipitate” value in data set [1] is given as “about 15.4%”. Further, in data set [2], the “chemical and physical stability after sterilization” value is “chemically and physically stable”. Besides, in data set [3] (in water), the mass solubility is recorded as 15.4%. Further, the “mannitol solubility in water” value in data set [3] is recorded as 1 g mannitol/5.5 ml water.
